The term pIC50 denotes the IC50 on a negative log10 scale, so that one unit is a factor of ten. The term solubility denotes how much of the substance goes into solution per volume. Read a low solubility as a poorly soluble substance.

From patent publication US9512180B2, “Compstatin analogs” (THE REGENTS OF THE UNIVERSITY OF CALIFORNIA, priority 2012, dated 2016) come the findings set out here.

pIC50: −log10 of the molar value. Where “and” joins values, the source holds several entries; their conditions need not be identical. Identical values can stand only once. Bridge positions count the residues as written; N and C are the ends. Square brackets hold non-standard residues; d marks the D form. Peptide text beside a SMILES is read from it. Trp(1-Me) = Cn1cc(C[C@H](N)C(=O)O)c2ccccc21

The test system of series [1] is complement alternative pathway (AP). Description: C3b ELISA (inhibition of C3b formation). It is filed as biochemical, human. Conditions: for pIC50: Table 9, means from three independent experiments, read-out: IC50, C3b ELISA. The method, then: (§1) Inhibition of the complement alternative pathway (AP) by compstatin family peptides was assayed by ELISA. Peptides were dissolved in phosphate buffered saline (PBS, 150 mM). Initial peptide concentrations were calculated using the Beer-Lambert Law with an extinction coefficient of 5,500 (1/M·cm) for Trp and 5,470 (1/M·cm) for methylated-Trp present in the sequence, at 280 nm. Nunc Maxisorp 96-well plates were coated with 1 μg lipopolysaccharides (LPS) from Salmonella enteriditis for ˜16 h at room temperature. Plates were washed three times with PBS/0.05% Tween-20 (PBS-T) between each step. Plates were blocked with 4% bovine serum albumin (BSA) in PBS-T for 1 h at 37° C. Serial peptide dilutions were performed in 96-well plates, using gelatin veronal-buffered saline with 5 mM MgCl2 and 10 mM EGTA (GVBS-MgEGTA). Normal human serum (Complement Technology Inc., Tyler, Tex., USA) was diluted in GVBS-MgEGTA and mixed with compstatin serial dilutions to a final concentration of 30%. Serum diluted in GVBS-MgEGTA and GVBS (containing 20 mM EDTA) were used as positive and negative controls for complement activation, respectively. Dilutions were preincubated for 15 minutes at room temperature, transferred to ELISA plates, and incubated for 1 h at 37° C. Generation of C3b and C5b-9 were assayed using horseradish peroxidase (HRP)-conjugated anti-C3 (MP Biomedicals, Solon, Ohio, USA) and anti-05b-9 aEll (Abcam, Cambridge, Mass., USA), respectively. Plates were washed and incubated with either anti-C3-HRP (1:5000 in 1% BSA/PBS-T) or anti-05b-9 (1:1000 in 1% BSA/PBS-T) for 1 h at 37° C. For C5b-9 detection, primary antibody incubation was followed by incubation with anti-mouse-HRP (BioRad, Hercules, Calif., USA) for 1 h at 37° C. (1:5000 in 1% BSA/PBS-T). Bound C3b and C5b-9 were quantified using a 3,3′,5,5′-tetramethylbenzidine substrate solution containing urea hydrogen peroxide in 0.11 M sodium acetate buffer, followed by a 1 N H2SO4 acid stop. Plates were measured spectrophotometrically at 450 nm. Percent inhibition of C3b and C5b-9 deposition was plotted against peptide concentration and the data was fitted to a logistic dose response curve with Prism software (GraphPad, San Diego, Calif., USA) to determine IC50 values.
(§2) In all assays, MgEGTA was used to chelate Ca′ ions required for classical/lectin pathway complement activation, while providing Mg′ necessary for AP activation. ELISAs allow for direct detection of C3b and C5b-9 formed during AP activation, while erythrocyte lysis assays provide a functional assessment of AP-mediated hemolysis in serum. […] Table 9 summarizes the IC50 values derived from the three different assays. […] The relative potencies of the peptides, based on the measured ICH values, are consistent across all three assays (Peptide III˜Peptide VI˜Peptide IX>Peptide I>Parent). Based on the assay conditions used in this study, peptides inhibited C5b-9 formation with moderately better efficacy than formation of C3b, while slightly higher concentrations were necessary to inhibit AP-mediated hemolysis.
In general terms: An ELISA detects its analyte on a solid surface through an enzyme-linked reagent.

A short description of series [2]: Aqueous solubility by concentration measurement (absorbance at 280 nm) of saturated peptide solutions. It is filed as physicochemical. The method, then:
The relative lipophilicities of Peptides I, III, VI, IX, and Parent are inversely consistent with solubilities as determined via concentration measurement (absorbance at 280 nm) of saturated peptide solutions, with Peptides I, III, and Parent having approximate aqueous solubilities of >1 mM, Peptide VI>500 μM, and Peptide IX<500 μM.

Series [3] relates to complement alternative pathway (AP). Description: C5b-9 ELISA (inhibition of C5b-9 terminal complex formation). It is filed as biochemical, human. On the procedure: as §1, §2
Series [4] can be described thus: RP-HPLC relative lipophilicity (retention factor k, log k). It is filed as physicochemical. The method, then:
The effect of the hydrophobic content of compstatin family peptides on relative lipophilicity was evaluated using RP-HPLC, a widely applied indirect technique for the determination of the lipophilicity of drugs and drug candidates. The determination of log P by RP-HPLC is based on the measurement of the retention factor k between the mobile and stationary phase (Eq. 7) of the investigated compound:
[formula] where tR is the retention time of the analyte, and to is the elution time of an unretained analyte. The logarithm of the retention factor is linearly correlated with the logarithm of the partition coefficient log P=a log k+b (8). where a and b are the slope and intercept of the linear equation.
The determination of log P values requires calibration using structurally related compounds, and is beyond the scope of this study. Instead the log k values were used to indicate the relative lipophilicities of this compstatin peptide family.
HPLC experiments were carried out using an Agilent 1100 HPLC with UV detection at 280 nm at 25° C. Separations were performed on a Waters (Milford, Mass.) 4.6×150 mm XTerra MS C18 column with 5 μm pore size using a mobile phase of A: 10 mM phosphate buffer pH=7.4 containing 1% TFA, and B: acetonitrile. The purity of the peptides was verified by an isocratic separation at 28% B and a flow rate of 1 mL/min. Solutions containing 0.6-0.8 mg/mL of Peptides I, III, VI, IX and the parent peptide were prepared in methanol and diluted 5-times with the eluent. All five peptides eluted as single peaks indicating a high degree of purity (FIG. 10).
For the determination of the relative lipophilicities a solution containing each of the peptides was prepared from the stock solutions and injected in triplicate. […] A 0.5 mg/mL solution of aspartic acid was used as the unretained analyte for the determination of the column dead time, 1.439±0.003 min.
RP-HPLC was used to measure the hydrophobicity/lipophilicity content of the compstatin family peptides. The retention of a compound in RP-HPLC depends on its hydrophobicity/lipophilicity content, and is correlated to the octanol-water partition ratio. Lipophilicity describes the partitioning of a compound between an aqueous and a lipidic/hydrophobic environment, and is an essential physicochemical parameter to determine pharmacokinetic behavior according to ADME (absorption, distribution, metabolism, excretion) characterization. Because the compstatin family peptides consist of a hydrophobic and a polar surface, their ability to bind to the hydrophobic cavity of C3, while maintaining a solvent-exposed face has been evaluated here as lipohilicity content, measured by RP-HPLC. In addition, lipohilicity is inversely proportional to aqueous solubility, and therefore can be used to estimate solubility of the peptides in their free (unbound) state.

Setting [5] is: Table 9, means from three independent experiments, read-out: IC50, C5b-9 ELISA.
The mark [6] stands for this setting: table 13, read-out: C5b-9 ELISA IC50.

Regarding `CC(=O)N[C@@H](CCCNC(=N)N)C(=O)N[C@H]1CSSC[C@@H](C(=O)N[C@H](C(N)=O)[C@@H](C)O)NC(=O)[C@H](CCCNC(=N)N)NC(=O)[C@H](Cc2c[nH]cn2)NC(=O)[C@H](C)NC(=O)CNC(=O)[C@H](Cc2c[nH]c3ccccc23)NC(=O)[C@H](CC(=O)O)NC(=O)[C@H](CCC(N)=O)NC(=O)[C@H](Cc2c[nH]c3ccccc23)NC(=O)[C@H](C(C)C)NC1=O` [Peptide I, Ac- RCV WQDWGA HRCT-NH2] (Ac-RCVWQDWGAHRCT-NH2; disulfide 2-12), the negative logarithm of the IC50 (pIC50) in series [1] was 5.59; in series [3] (setting [5]) it was 5.69; in series [3] (setting [6]), 6.00 and 5.70. The solubility in series [2] is more than 1000 µM. In addition, the “Retention factor (k)” value in series [4] came to 2.828. Also, the logk in series [4] is 0.451.
Regarding `CC[C@H](C)[C@H](N)C(=O)N[C@H]1CSSC[C@@H](C(=O)N[C@H](C(N)=O)[C@@H](C)O)NC(=O)[C@H](CCCN=C(N)N)NC(=O)[C@H](Cc2cnc[nH]2)NC(=O)[C@H](Cc2cnc[nH]2)NC(=O)CNC(=O)[C@H](Cc2c[nH]c3ccccc23)NC(=O)[C@H](CC(=O)O)NC(=O)[C@H](CCC(N)=O)NC(=O)[C@H](C(C)C)NC(=O)[C@H](C(C)C)NC1=O` [Parent, ICV VQDWGH HRCT-NH2, reference compound], the “inhibition less than other peptides” value in series [1] (C3b inhibition in ELISA, versus Peptides I, III, VI, IX) is recorded as 10- to 15 fold; in series [3] (C5b-9 inhibition in ELISA, versus Peptides I, III, VI, IX), 10- to 15 fold. Moreover, the pIC50 in series [1] was 4.46; in series [3] (setting [5]), 4.73; in series [3] (setting [6]), 4.73 and 4.90. The “Retention factor (k)” value in series [4] turned out to be 2.472. Besides, the logk in series [4] came to 0.393. The relative lipophilicity result in series [4] (isocratic 24% acetonitrile, pH=7.4 phosphate buffer) is “least lipophilic”.
Turning to `CC(=O)N[C@@H](CCCNC(=N)N)C(=O)N[C@H]1CSSC[C@@H](C(=O)N[C@H](C(N)=O)[C@@H](C)O)NC(=O)[C@H](CCCNC(=N)N)NC(=O)[C@H](Cc2c[nH]cn2)NC(=O)[C@H](C)NC(=O)CNC(=O)[C@H](Cc2c[nH]c3ccccc23)NC(=O)[C@H](CC(=O)O)NC(=O)[C@H](CCC(N)=O)NC(=O)[C@H](Cc2cn(C)c3ccccc23)NC(=O)[C@H](C(C)C)NC1=O` [Peptide III, Ac- RCV meWQDWGA HRCT-NH2] (Ac-RCV[Trp(1-Me)]QDWGAHRCT-NH2; disulfide 2-12), the pIC50 in series [1] is 5.85; in series [3] (setting [5]), 5.97; in series [3] (setting [6]) it was 6.22 and 5.96. Moreover, the solubility in series [2] was more than 1000 µM. Further, the “Retention factor (k)” value in series [4] worked out at 6.165. For the same compound, the logk in series [4] turned out to be 0.790.
For the compound `CC[C@H](C)[C@H](NC(=O)[C@H](CO)NC(=O)[C@H](CCCNC(=N)N)NC(C)=O)C(=O)N[C@H]1CSSC[C@@H](C(=O)N[C@H](C(N)=O)[C@@H](C)O)NC(=O)[C@H](CCCNC(=N)N)NC(=O)[C@H](Cc2c[nH]cn2)NC(=O)[C@H](C)NC(=O)CNC(=O)[C@H](Cc2c[nH]c3ccccc23)NC(=O)[C@H](CC(=O)O)NC(=O)[C@H](CCC(N)=O)NC(=O)[C@H](Cc2cn(C)c3ccccc23)NC(=O)[C@H](C(C)C)NC1=O` [Peptide VI, Ac-RS-ICV meWQDWGA HRCT-NH2], the pIC50 in series [1] was 5.76; in series [3] (setting [5]), 5.95; in series [3] (setting [6]), 6.22 and 5.96. In series [2], this compound had a solubility of more than 500 µM. Further, the “Retention factor (k)” value in series [4] turned out to be 9.913. Further, in series [4], the logk is 0.996.
